Experiment [1] concerns CA3 mossy fiber synapses. Nature of the experiment: Mossy fiber-CA3 extracellular recordings of fEPSPs in hippocampal slices. Also noted: species or system mouse. The source says: Hippocampal slices from five- to six-month-old ST8Sia-II-deficient mice and their wild-type littermates were used for recordings. After halothane anesthesia, decapitation and removal of the brain, the hippocampi were cut with a VT 1000M vibratome (Leica, Nussloch, Germany) in slices 300 μm thick in ice-cold artificial cerebrospinal fluid (ACSF) containing (in mM): 250 sucrose, 25 NaHCO3, 25 glucose, 2.5 KCl, 1.25 NaH2PO4, 2 CaCl2, and 1.5 MgCl2, pH 7.3. […]
The LTP-inducing high-frequency stimulation (HFS) consisted of one train of stimuli applied at 100 Hz during 1 sec once (“weak” stimulation protocol) or repeated four times with an interval of 20 sec (“strong” stimulation protocol). […] To additionally confirm that the fEPSPs recorded were evoked by the stimulation of mossy fibers and not by the associational/commissural pathway, an agonist of type II metabotropic glutamate receptors (L-CCG1, 10 μM; Tocris), which is known to reduce synaptic transmission in CA3 mossy fiber synapses (Manzoni, et al. Neuropharmacology (1995) 34:965-71), was applied at the end of each experiment. […] Basal synaptic transmission was monitored at 0.033 Hz. The mean amplitude of fEPSPs recorded 0-10 min before HFS was taken as 100%. Post-tetanic potentiation (PTP) was calculated as the maximal increase in the amplitude of fEPSP after HFS. […]

The test system of experiment [2] is cultured neurons. Conditions: acts as chain terminator after conversion to unnatural sialic acid derivative; cited from earlier work.
Experiment [3] relates to cell surface membrane resialylation. Conditions: compounds that affect intracellular pools of CTP; cited from earlier work.

This is an account of results in patent publication US20070142319A1, “Anxiolytic treatment by inhibition of a polysialyltransferase” (The Burnham Institute, priority 2004, published 2007).

The structures appear in SMILES notation.

As for `NC(CCCP(=O)(O)O)C(=O)O` (stereo not drawn) [AP-5], the “effect on the amplitude of recorded fEPSPs” value in experiment [1] (AP-5 50 μM, wild-type or ST8Sia-II deficient samples) is “did not affect the amplitude”.

In the case of `CCCC(=O)N[C@@H]1C(O)O[C@H](CO)[C@@H](O)[C@@H]1O` (stereo partly drawn) [N-butanoylmannosiamine], the “PSA expression on cultured neurons” value in experiment [2] is “inhibit PSA expression”. As for `O=C1C=CN([C@@H]2O[C@H](CO)[C@@H](O)[C@H]2O)C(=O)C1` [3-deazauridine], the “cell surface membrane resialylation” value in experiment [3] is “curtail”. Regarding `N[C@H](C(=O)O)[C@H]1C[C@@H]1C(=O)O` [L-CCG1], the “reduction of the amplitude of fEPSPs” value in experiment [1] (L-CCG1 10 μM at end of experiment, similarly in both genotypes (wild-type and ST8Sia-II deficient)) amounted to 80%. For `Nc1ccn([C@@H]2O[C@H](CO)[C@@H](O)[C@@H]2O)c(=O)n1` [1-beta-D-arabinofuranosylcytosine], the “cell surface membrane resialylation” value in experiment [3] is reported as “curtail”. For `N[C@H](C(=O)O)[C@@H]1CC(Cl)=NO1` [acivicin], the “cell surface membrane resialylation” value in experiment [3] is reported as “curtail”.
